# What was measured:
# [1] = molecular target: T1, COX-2 enzyme (Ovis aries, UniProt P79208); assay: colorimetric COX (ovine) inhibitor screening assay, COX-2 inhibition; settings: peaks of subfractionated paradol fraction (Method C)
# T1 sequence (P79208 17-603): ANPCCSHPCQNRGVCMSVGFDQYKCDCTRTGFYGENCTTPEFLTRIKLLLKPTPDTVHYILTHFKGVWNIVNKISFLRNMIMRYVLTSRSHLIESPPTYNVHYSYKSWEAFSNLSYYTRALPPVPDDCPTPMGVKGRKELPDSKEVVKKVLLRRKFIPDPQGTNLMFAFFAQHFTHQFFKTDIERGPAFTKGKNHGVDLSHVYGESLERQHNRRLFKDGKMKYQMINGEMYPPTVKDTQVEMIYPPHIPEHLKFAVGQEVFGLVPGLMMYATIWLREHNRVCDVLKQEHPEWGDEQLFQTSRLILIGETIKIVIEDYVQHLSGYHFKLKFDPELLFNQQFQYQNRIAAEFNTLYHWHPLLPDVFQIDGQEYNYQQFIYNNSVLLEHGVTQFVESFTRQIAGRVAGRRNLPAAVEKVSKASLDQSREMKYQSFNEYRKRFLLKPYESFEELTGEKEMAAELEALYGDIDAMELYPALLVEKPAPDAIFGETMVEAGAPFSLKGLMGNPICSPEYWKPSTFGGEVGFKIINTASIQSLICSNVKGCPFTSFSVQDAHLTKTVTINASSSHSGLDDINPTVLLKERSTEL
# Protocol: The anti-inflammatory extract product of Example 1 was suspended in 95 vol. % ethanol at a concentration of 1 milligram (mg) extract product per milliliter (mL) ethanol to form an A. melegueta solution. The activity of the solution was tested with a colorimetric COX (ovine) inhibitor screening assay (catalogue no. 760111, Cayman Chemical, Ann Arbor, Mich.). The screening assay measures the peroxidase activity of cyclooxygenases by monitoring the appearance of oxidized N,N,N′N′-tetramethyl-p-phenylenediamine (TMPD) at 590 nm as previously described [Kulmacz, Prostaglandins, 25:531-540 (1983)]. A (relatively) higher TMPD concentration corresponds to a greater absorbance at 590 nm, a greater peroxidase activity, and a greater COX-2 activity (corresponding to the degree of inhibition of COX-2 activity).
# Three milliliters (mL) of assay buffer concentrate (as provided) was diluted with 27 mL HPLC-grade water to provide a final assay buffer (0.1M Tris-HCl, pH 8). This buffer assay solution was used to prepare heme and COX-2 enzyme assay solutions. […]
# 10 μl of 95 vol. % ethanol was then added to the background and negative control wells. […] The absorbance for each well was measured at 590 nm using a plate reader.
# The inhibitory activity was calculated from these absorbance readings. […]
# [2] = system: carrageenan hind paw edema; assay: rat hind paw edema assay, two studies (Example 4); assay type: in vivo, Long-Evans-derived rats; settings: 1 h after carrageenan (positive control)
# Protocol: Two studies were conducted. […] The anti-inflammatory extract product was administered to the groups at different dose protocols. Comparisons can be made relative to the negative and positive control animal groups. Groups 2 and 4 of the first and second study, and Groups 2 and 5 of the second study, received a single dose of the extract product one hour after hind paw injection of carrageenan (0.1 ml of a suspension of 1 wt. % carrageenan in […], intraplantar). Group 3 of both studies received a first dose of the extract product one hour before, and a second dose of the extract product one hour after, hind paw injection of carrageenan. […] Group 4 of the second study received a dose of the extract product one hour before administration of carrageenan. Group 5 of the first study and Group 6 of the second study received indomethacin, a commercially available nonsteroidal anti-inflammatory drug, one hour after hind paw injection of carrageenan. Indomethacin was administered as a positive control reference compound, and Groups 5 and 6 (of the first and second studies, respectively) represent positive control groups. The severity of the hind paw edema (i.e., hind paw volume) was recorded at 3 hours after, 5 hours after, and 24 hours after carrageenan administration using a plethysmometer (Ugo Basile, Italy). The hind paw volume measurements after carrageenan administration correspond to the amount of induced swelling, and a reduction in the percentage of increase in hind paw volume relative to the percentage of increase observed in hind paw volume for the negative control group corresponds to a reduction in inflammation. For example, the hind paw volume of the negative control group of the first study (Group 1) increased by about 45% whereas the hind paw volume of Group 2 (which received an Aframomum melegueta extract product) increased by only 25%.
# [3] = system: carrageenan hind paw edema; assay: rat hind paw edema assay (Example 3); assay type: in vivo, Long-Evans-derived rats; settings: 150 mg/kg; 3 h after carrageenan
# Protocol: Hind paw edema models have been extensively described [see, for example, […] et al. (eds.), Inflammation Protocols, pp. 115-122 (2003)] and have been accepted as in vivo models of human inflammation. […] Aspirin was administered to another group of three Long-Evans rats at 150 mg/kg dose as a positive control reference compound. The severity of the hind paw edema (i.e., the hind paw volume) was recorded 3 hours after carrageenan administration using a plethysmometer (Ugo Basile, Italy). The hind paw volume measurements correspond to the amount of induced swelling, and therefore a reduction in the swelling corresponds to a reduction in inflammation. The anti-inflammatory activity of the Aframomum melegueta extract products can be expressed as a percentage of edema reduction (relative to the negative control (i.e., full edema)).
# [4] = system: acetic acid-induced writhing; assay: acetic acid-induced writhing assay; assay type: in vivo, mice; settings: 100 mg/kg
# Protocol: This writhing assay has been previously described [Inoue et al., Arzneimittelforschung, 41(3):235-239 (1991).] […] An aqueous solution comprising 2 vol. % Tween 80 was administered as a negative control to another group of three mice. Aspirin was administered at 100 mg/kg as a positive control to a fourth group of three mice. The number of writhings per animal group was observed during the period beginning at about five minutes after acetic acid challenge and ending at about ten minutes after acetic acid challenge. The average number of writhings per animal group is an indication of pain, e.g., inflammation-induced pain, and therefore a reduction in the number of writhings per unit time per animal group corresponds to a reduction in inflammation. The reduction in number of writhings can be expressed relative to the negative control value as a percentage of inflammation inhibition.
# [5] = first study Group 5: 15 mg/kg, 3 h
# [6] = first study Group 5: 15 mg/kg, 5 h
# [7] = first study Group 5: 15 mg/kg, 24 h
# [8] = second study Group 6: 15 mg/kg, 3 h
# [9] = second study Group 6: 15 mg/kg, 5 h
# [10] = second study Group 6: 15 mg/kg, 24 h
compound,measurement,setting,value
"CCCCCCCC(=O)CCc1ccc(O)c(OC)c1 (single isomer, unassigned) [first peak, [6]-paradol]",COX-2 inhibitory activity,[1]; 1 mg/mL,74%
"COc1ccc2c(c1)c(CC(=O)O)c(C)n2C(=O)c1ccc(Cl)cc1 [Indomethacin, indomethacin]",Increase in rat hind paw volume after carrageenan administration,[2]; [5],44%
same,rat hind paw volume after carrageenan administration,[2]; [5],1.51 ± 0.05 mL
same,Increase in rat hind paw volume after carrageenan administration,[2]; [6],29%
same,rat hind paw volume after carrageenan administration,[2]; [6],1.35 ± 0.08 mL
same,Increase in rat hind paw volume after carrageenan administration,[2]; [7],12%
same,rat hind paw volume after carrageenan administration,[2]; [7],1.18 ± 0.1 mL
same,Increase in rat hind paw volume after carrageenan administration,[2]; [8],44%
same,rat hind paw volume after carrageenan administration,[2]; [8],1.51 ± 0.05 mL
same,Increase in rat hind paw volume after carrageenan administration,[2]; [9],29%
same,rat hind paw volume after carrageenan administration,[2]; [9],1.35 ± 0.08 mL
same,Increase in rat hind paw volume after carrageenan administration,[2]; [10],12%
same,rat hind paw volume after carrageenan administration,[2]; [10],1.18 ± 0.1 mL
"CCCCCCCC(=O)CCc1ccc(O)c(OC)c1 (single isomer, unassigned) [second peak, [6]-paradol]",inhibition at 1000 µg/mL,"[1]; read-out: COX-2 inhibitory activity, 1 mg/mL",83%
CC(=O)Oc1ccccc1C(=O)O [aspirin],reduction of hind paw edema,[3],about 43%
same,percentage of inflammation inhibition (writhing),[4],80%
same,average number of writhings per animal group,[4]; 5-10 min after challenge,3

# — patent publication US20050260290A1, “Botanical anti-inflammatory compositions and methods” (RUTGERS, THE STATE UNIVERSITY OF NEW JERSEY, priority 2004, published 2005)
